From paper PMC6360668, “Discovery and evaluation of ZT55, a novel highly-selective tyrosine kinase inhibitor of JAK2^V617F against myeloproliferative neoplasms” (Journal of Experimental & Clinical Cancer Research : CR, 2019) come the findings set out here.

Molecules are shown by their SMILES.

This assay addresses JAK2 (Homo sapiens, UniProt O60674). The experiment in a line: HTRF KinEASE cell-free kinase assay with recombinant human JAK2. It counts as biochemical. (In general: In TR-FRET formats the signal depends on donor and acceptor labels being close together.)

JAK2, sequence (O60674 whole entry): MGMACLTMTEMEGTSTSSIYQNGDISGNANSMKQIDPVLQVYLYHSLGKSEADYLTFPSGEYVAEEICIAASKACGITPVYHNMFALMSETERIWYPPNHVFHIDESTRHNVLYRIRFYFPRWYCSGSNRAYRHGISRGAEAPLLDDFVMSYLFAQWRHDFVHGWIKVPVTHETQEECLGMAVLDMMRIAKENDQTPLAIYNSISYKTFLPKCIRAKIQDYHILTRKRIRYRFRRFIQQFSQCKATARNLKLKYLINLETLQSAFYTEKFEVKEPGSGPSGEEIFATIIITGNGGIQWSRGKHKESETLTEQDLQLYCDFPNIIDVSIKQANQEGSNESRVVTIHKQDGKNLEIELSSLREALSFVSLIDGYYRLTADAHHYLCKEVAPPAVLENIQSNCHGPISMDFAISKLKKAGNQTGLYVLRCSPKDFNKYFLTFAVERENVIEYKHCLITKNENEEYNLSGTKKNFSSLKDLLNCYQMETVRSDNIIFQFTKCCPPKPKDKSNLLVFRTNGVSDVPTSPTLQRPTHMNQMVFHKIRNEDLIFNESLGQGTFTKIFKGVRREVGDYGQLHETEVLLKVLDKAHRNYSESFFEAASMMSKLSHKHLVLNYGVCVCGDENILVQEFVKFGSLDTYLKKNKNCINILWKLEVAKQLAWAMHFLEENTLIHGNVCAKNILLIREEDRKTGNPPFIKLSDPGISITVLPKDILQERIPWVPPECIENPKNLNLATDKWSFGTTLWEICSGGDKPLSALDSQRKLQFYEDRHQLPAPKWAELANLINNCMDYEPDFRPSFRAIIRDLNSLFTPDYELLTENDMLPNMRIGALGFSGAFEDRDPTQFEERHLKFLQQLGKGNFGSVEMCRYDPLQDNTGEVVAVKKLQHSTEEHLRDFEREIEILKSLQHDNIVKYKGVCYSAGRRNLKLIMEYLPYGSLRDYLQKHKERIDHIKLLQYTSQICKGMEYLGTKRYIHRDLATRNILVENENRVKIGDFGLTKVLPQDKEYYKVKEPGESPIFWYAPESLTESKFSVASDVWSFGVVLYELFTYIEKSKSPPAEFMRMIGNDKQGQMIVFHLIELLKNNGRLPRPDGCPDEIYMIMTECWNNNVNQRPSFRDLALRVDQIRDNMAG

`COc1ccccc1NC(=O)Cc1cn(O)c2ccccc12` [ZT55]: the half-maximal inhibitory concentration (IC50) was 31 nM.

Broadly, the IC50 is the concentration that gives 50% inhibition.
